The structures appear in SMILES notation. Read-outs that look alike come from different tables or passages of the source.

Assay [1] deals with T1, rat orexin-1 receptor (Rattus norvegicus, UniProt P56718).
T1 construct: expressed in transfected cells; host or cells: CHO cells (grown under G418 selection)
T1 sequence (P56718 1-416): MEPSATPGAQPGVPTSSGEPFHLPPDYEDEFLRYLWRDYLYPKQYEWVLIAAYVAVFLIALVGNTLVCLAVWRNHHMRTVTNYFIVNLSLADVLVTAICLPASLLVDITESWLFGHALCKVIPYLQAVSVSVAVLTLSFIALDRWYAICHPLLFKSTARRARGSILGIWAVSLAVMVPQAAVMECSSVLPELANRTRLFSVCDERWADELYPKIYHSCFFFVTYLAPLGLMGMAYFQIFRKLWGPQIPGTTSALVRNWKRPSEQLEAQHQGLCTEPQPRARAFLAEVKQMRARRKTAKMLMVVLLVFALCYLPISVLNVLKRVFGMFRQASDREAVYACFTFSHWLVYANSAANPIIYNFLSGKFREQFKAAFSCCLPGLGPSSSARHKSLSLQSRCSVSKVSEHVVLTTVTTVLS
The assay can be described thus: FLIPR Ca2+ flux assay, OX1R. The format is cell-based. The following applies: CHO cells expressing rat orexin-1 receptor; agonist 70 pM Ala-6,12 orexin-A. The protocol:
(§1) For intracellular calcium measurements, Chinese hamster ovary (CHO) cells expressing the rat orexin-1 receptor or the human orexin-2 receptor, are grown in Iscove's modified DMEM containing 2 mM L-glutamine, […], 1% hypoxanthine-thymidine supplement, 100 U/ml penicillin, 100 μg/ml streptomycin and 10% heat-inactivated fetal calf serum (FCS). The cells are seeded at 20,000 cells/well into Becton-Dickinson black 384-well clear bottom sterile plates coated with poly-D-lysine. All reagents were from GIBCO-Invitrogen Corp. The seeded plates are incubated overnight at 37° C. and 5% CO2. Ala-6,12 human orexin-A as the agonist is prepared as a 1 mM stock solution in 1% bovine serum albumin (BSA) and diluted in assay buffer (HBSS containing 20 mM HEPES, 0.1% BSA and 2.5 mM probenecid, pH7.4) for use in the assay at a final concentration of 70 pM. Test compounds are prepared as 10 mM stock solution in DMSO, then diluted in 384-well plates, first in DMSO, then assay buffer. On the day of the assay, cells are washed 3 times with 100 μl assay buffer and then incubated for 60 min (37° C., 5% CO2) in 60 μl assay buffer containing 1 μM Fluo-4AM ester, 0.02% pluronic acid, and 1% BSA, The dye loading solution is then aspirated and cells are washed 3 times with 100 μl assay buffer, 30 μl of that same buffer is left in each well. Within the Fluorescent Imaging Plate Reader (FLIPR, Molecular Devices), test compounds are added to the plate in a volume of 25 μl, incubated for 5 min and finally 25 μl of agonist is added. Fluorescence is measured for each well at 1 second intervals for 5 minutes and the height of each fluorescence peak is compared to the height of the fluorescence peak induced by 70 pM Ala-6,12 orexin-A with buffer in place of antagonist. […] The intrinsic orexin receptor antagonist activity of a compound which may be used in the present invention may be determined by these assays.

Assay [2] addresses T2, human orexin-2 receptor (Homo sapiens, UniProt O43614).
T2 construct: expressed in transfected cells; host or cells: CHO cells (grown under G418 selection)
T2 sequence (O43614 1-444): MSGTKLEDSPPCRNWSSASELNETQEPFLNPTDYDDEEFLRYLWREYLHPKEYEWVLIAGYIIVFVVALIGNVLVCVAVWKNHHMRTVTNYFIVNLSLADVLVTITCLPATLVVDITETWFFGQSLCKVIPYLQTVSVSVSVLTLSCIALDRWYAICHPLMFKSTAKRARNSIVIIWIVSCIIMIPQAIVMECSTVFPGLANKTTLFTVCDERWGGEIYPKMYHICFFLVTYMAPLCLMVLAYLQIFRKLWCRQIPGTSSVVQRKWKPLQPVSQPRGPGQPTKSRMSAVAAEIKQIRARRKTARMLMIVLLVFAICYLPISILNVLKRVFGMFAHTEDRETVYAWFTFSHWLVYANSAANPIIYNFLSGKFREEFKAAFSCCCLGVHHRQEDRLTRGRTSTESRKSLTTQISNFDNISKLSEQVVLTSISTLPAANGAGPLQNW
The assay can be described thus: FLIPR Ca2+ flux assay, OX2R. The format is cell-based. Particulars: for Fold Selective: OX2R over OX1R, from FLIPR values. The protocol: as §1

Where [3] appears, read: CHO cells expressing human orexin-2 receptor, agonist 70 pM Ala-6,12 orexin-A, read-out: OX2R FLIPR.

In the case of `CC(=O)N(C)c1cccc(N2CC[C@@H](C)N(C(=O)c3ccccc3-n3nccn3)CC2)n1` [Example 12, N-methyl-N-{6-[(5R)-5-methyl-4-{[2-(2H-1,2,3-triazol-2-yl)phenyl]carbonyl}-1,4-diazepan-1-yl]pyridin-2-yl}acetamide], the IC50 in assay [1] is more than 10000 nM; in assay [2] (setting [3]), 85 nM. Also, the “Fold Selective” value in assay [2] stood at 117.
For the molecule `C[C@@H]1CCN(c2cccc(N(C)C(=O)C3CC3)n2)CCN1C(=O)c1ccccc1-n1nccn1` [Example 18, N-methyl-N-{6-[(5R)-5-methyl-4-{[2-(2H-1,2,3-triazol-2-yl)phenyl]carbonyl}-1,4-diazepan-1-yl]pyridin-2-yl}cyclopropanecarboxamide], the IC50 in assay [1] was 9130 nM; in assay [2] (setting [3]), 71 nM. In addition, the “Fold Selective” value in assay [2] came out at 128.
On to `Cc1ccc(-n2nccn2)c(C(=O)N2CCCN(c3nc4ccccc4o3)CC2)c1` [Example B-3, reference compound], for which the “selectivity between orexin-2 receptor and orexin-1 receptor (in words)” value in assay [2] (comparison with diazepane compounds of U.S. Pat. No. 8,685,961) is recorded as “greater selectivity for the orexin-1 receptor than for the orexin-2 receptor”.
Take `Cc1ccnc(N2CC[C@@H](C)N(C(=O)c3ccccc3-n3nccn3)CC2)c1` [Example 1, (R)-(2-(2H-1,2,3-triazol-2-yl)phenyl)(7-methyl-4-(4-methylpyridin-2-yl)-1,4-diazepan-1-yl)methanone]: the figures for the IC50 in assay [1] and in assay [2] were more than 10000 nM and 147 nM, respectively. Moreover, in assay [2], the “Fold Selective” value came out at 68.
In the case of `C[C@@H]1CCN(c2cccc(N3CCN(C)C3=O)n2)CCN1C(=O)c1ccccc1-n1nccn1` [Example 11, 1-methyl-3-{6-[(5R)-5-methyl-4-{[2-(2H-1,2,3-triazol-2-yl)phenyl]carbonyl}-1,4-diazepan-1-yl]pyridin-2-yl}imidazolidin-2-one], the values for the IC50 in assay [1] and in assay [2] (setting [3]) were 4760 nM and 104 nM, respectively. The “Fold Selective” value in assay [2] turned out to be 46.
The like results for `C[C@@H]1CCN(c2cccc(N3CCN(C)C3=O)n2)CCN1C(=O)c1cc(F)ccc1-n1nccn1` [Example 16, 1-{6-[(5R)-4-{[5-fluoro-2-(2H-1,2,3-triazol-2-yl)phenyl]carbonyl}-5-methyl-1,4-diazepan-1-yl]pyridin-2-yl}-3-methylimidazolidin-2-one] were, in that order, more than 10000 nM, 197 nM and 50.
The like results for `C[C@@H]1CCN(c2nccn3ccnc23)CCN1C(=O)c1ccccc1-n1nccn1` [Example 22, 8-[(5R)-5-methyl-4-{[2-(2H-1,2,3-triazol-2-yl)phenyl]carbonyl}-1,4-diazepan-1-yl]imidazo[1,2-a]pyrazine] were, in that order, more than 10000 nM, 50 nM and 200.
Consider `C[C@@H]1CCN(c2nccn3ccnc23)CCN1C(=O)c1cccnc1-n1cccn1` [Example 25, 8-[(5R)-5-methyl-4-{[2-(1H-pyrazol-1-yl)pyridin-3-yl]carbonyl}-1,4-diazepan-1-yl]imidazo[1,2-a]pyrazine], for which the IC50 was more than 10000 nM in assay [1] and 126 nM in assay [2] (setting [3]). For the same molecule, the “Fold Selective” value in assay [2] is 79.
Take `C[C@@H]1CCN(c2nccn3ccnc23)CCN1C(=O)c1ccccc1C1CC1` [Example 23, 8-{(5R)-4-[(2-cyclopropylphenyl)carbonyl]-5-methyl-1,4-diazepan-1-yl}imidazo[1,2-a]pyrazine]: the IC50 in assay [1] is more than 10000 nM; in assay [2] (setting [3]), 29 nM. Besides, the “Fold Selective” value in assay [2] came out at 344.
For `C[C@@H]1CCN(c2nccn3ccnc23)CCN1C(=O)c1ccccc1C1(C#N)CC1` [Example 21, (R)-1-(2-(4-(imidazo[1,2-a]pyrazin-8-yl)-7-methyl-1,4-diazepane-1-carbonyl)phenyl)cyclopropanecarbonitrile], the results for the IC50 in assay [1] and in assay [2] (setting [3]) were more than 10000 nM and 65 nM, respectively. Moreover, the “Fold Selective” value in assay [2] was determined as 153.
As for `CCN(C(C)=O)c1cccc(N2CC[C@@H](C)N(C(=O)c3ccccc3-n3nccn3)CC2)n1` [Example 13, N-ethyl-N-{6-[(5R)-5-methyl-4-{[2-(2H-1,2,3-triazol-2-yl)phenyl]carbonyl}-1,4-diazepan-1-yl]pyridin-2-yl}acetamide], the IC50 in assay [1] is more than 10000 nM; in assay [2] (setting [3]), 67 nM. Moreover, the “Fold Selective” value in assay [2] was found to be 149.
The like results for `COc1ccnc(N2CC[C@@H](C)N(C(=O)c3cccnc3OCC(F)(F)F)CC2)c1` [Example 7, (5R)-1-(4-methoxypyridin-2-yl)-5-methyl-4-{[2-(2,2,2-trifluoroethoxy)pyridin-3-yl]carbonyl}-1,4-diazepane] were, in that order, more than 10000 nM, 92 nM and 108.
The matching figures for `COc1ccnc(N2CC[C@@H](C)N(C(=O)c3ccccc3C3CCC3)CC2)c1` [Example 8, (5R)-4-[(2-cyclobutylphenyl)carbonyl]-1-(4-methoxypyridin-2-yl)-5-methyl-1,4-diazepane]: more than 10000 nM, 123 nM and 81.
The matching figures for `CC(O)c1cccc(N2CC[C@@H](C)N(C(=O)c3ccccc3-n3nccn3)CC2)n1` (stereo partly drawn) [Example 19, (2-(2H-1,2,3-triazol-2-yl)phenyl)((7R)-4-(6-(1-hydroxyethyl)pyridin-2-yl)-7-methyl-1,4-diazepan-1-yl)methanone]: 2550 nM, 20 nM and 127.
For `COc1ccnc(N2CC[C@@H](C)N(C(=O)c3ccsc3-n3nccn3)CC2)c1` [Example 3, (R)-(2-(2H-1,2,3-triazol-2-yl)thiophen-3-yl)(4-(4-methoxypyridin-2-yl)-7-methyl-1,4-diazepan-1-yl)methanone], the IC50 in assay [1] is more than 10000 nM; in assay [2] (setting [3]) it was 122 nM. In assay [2], the “Fold Selective” value came to 82.
With `COc1ccnc(N2CC[C@@H](C)N(C(=O)c3cccnc3OCC(F)F)CC2)c1` [Example 6, (5R)-4-{[2-(2,2-difluoroethoxy)pyridin-3-yl]carbonyl}-1-(4-methoxypyridin-2-yl)-5-methyl-1,4-diazepane], the results for the IC50 in assay [1] and in assay [2] (setting [3]) were more than 10000 nM and 183 nM, respectively. The “Fold Selective” value in assay [2] worked out at 54.
On to `COc1ccnc(N2CC[C@@H](C)N(C(=O)c3ccccc3C3CC3)CC2)c1` [Example 9, (5R)-4-[(2-cyclopropylphenyl)carbonyl]-1-(4-methoxypyridin-2-yl)-5-methyl-1,4-diazepane], for which the IC50 in assay [1] is more than 10000 nM; in assay [2] (setting [3]), 125 nM. Moreover, in assay [2], the “Fold Selective” value was determined as 80.
Regarding `CC(C)C(=O)N(C)c1cccc(N2CC[C@@H](C)N(C(=O)c3ccccc3-n3nccn3)CC2)n1` [Example 17, N,2-dimethyl-N-{6-[(5R)-5-methyl-4-{[2-(2H-1,2,3-triazol-2-yl)phenyl]carbonyl}-1,4-diazepan-1-yl]pyridin-2-yl}propanamide], the IC50 in assay [1] is more than 10000 nM; in assay [2] (setting [3]) it was 48 nM. In addition, in assay [2], the “Fold Selective” value came to 208.
For `CCC(=O)N(C)c1cccc(N2CC[C@@H](C)N(C(=O)c3ccccc3-n3nccn3)CC2)n1` [Example 10, (R)-N-(6-(4-(2-(2H-1,2,3-triazol-2-yl)benzoyl)-5-methyl-1,4-diazepan-1-yl)pyridin-2-yl)-N-methylpropionamide], in assay [1], the IC50 is more than 10000 nM.
